# Several values for one entry are separate records, joined by “and”; a condition that tells them apart may be missing. Equal entries are not always repeated. Entries after “also recorded” stand apart in the source; their conditions may differ. Where two headings read alike, the source gives them in different places. Marks after values point to notes of the source that are not given here.
# Key:
# methane emissions [1] = assay: Animal study (Example 3): gas emissions in respiration chambers; assay type: in vivo, dairy beef heifers
# Procedure: An animal study was conducted to determine methane emissions from an animal implanted with a bolus of the disclosure. The experiment was designed as an unbalanced, completely randomized design with three treatments and three repeated measurements over time in three periods 8 to 12 weeks apart.
# Nineteen dairy beef heifers (312±14 kg live weight), including three spare animals, were selected from a mob of 50 based on behaviour traits and liveweight from a research farm in the Manawatu, New Zealand. They were assigned to one of three treatments: a bolus containing no bromoform (CONTROL; n=4); a bolus releasing bromoform at a rate of about 300-400 mg/day (LOW, n=6); or a bolus releasing about 450-580 mg/day (HIGH, n=6). SmaXtec boluses were administered at the same time to monitor rumen temperature as an animal health monitor and to complement the weekly blood samples.
# The heifers were transported from research farm to a testing centre for diet adaptation and gas measurements using respiration chambers. The heifers were adapted to the environment of the cattle yards and the fresh cut pasture for 7 days before receiving their allocated treatment bolus. Gas measurements started 13 days after the boluses were administrated. Each heifer was in the respiration chambers for 48 hours during the period of gas measurements, which took two weeks for four measurement groups. At the end of the measurements in respiration chambers, the animals were transported back to research farm.
# Fermentation gases methane (CH4), carbon dioxide (CO2) and hydrogen (H2) were quantified in four open-circuit respiration chambers at the New Zealand Ruminant Methane Measurement Centre (AgResearch, Palmerston North, New Zealand). Each chamber is 15.4 m^3 (3.5 m long×2 m wide×2.2 m high) with an air flow rate of around 1.0 m^3/min, which was continuously monitored by measuring differential pressure using a Venturi flowmeter. Temperature inside respiration chambers was approximately 20° C. and the relative humidity was on average approximately 79%. All gases were measured at ˜2.8-min intervals using a 4900C Continuous Emission analyser (Servomex Group Ltd, East Sussex, UK) and daily production of each gas was calculated from the difference between concentration flowing in- and out of the chamber (Pinares-Patiño et al., 2012). Respiration chambers were opened twice daily (˜20 min each time) for cleaning, feeding, faecal sampling and feed refusal collection. No measurements were performed during the period when chambers were opened, and missing data were interpolated by taking the average of the last 12 values ([…]) before the doors were opened.
# Data from the first period of gas measurements was analysed using the ‘predictmeans’ and ‘Ime4’ packages in the statistical software R 4.0.3 (R Core Team, 2020). Data for dry matter intake and gas emissions for each heifer were averaged across the two measurement days. Heifer served as the experimental unit. The mixed model included treatment as fixed effect and respiration chamber nested in measurement group as random effect.
# methane emissions [2] = assay: Preliminary field trial (Example 14): gas emission measurements in respiration chambers; assay type: in vivo, heifers
# Procedure: The following preliminary field trial is an example of the methane inhibiting capabilities of the bolus invention in a live animal trial using recognised methane analysis techniques. The bolus used in the trial is outlined in Table 14 and the trial time schedule is outlined in Table 16.
# Five different total bromoform doses across two different diets were tested, giving a total of ten treatments (Table 15). […] Within each dose group, half of the animals were fed baleage (baled cut and covered pasture), and the other half were adapted to a diet of fresh cut ryegrass (New Zealand fresh pasture). Boluses were washed prior to administration to remove any bromoform that may have accumulated on the outside of the bolus. The additional boluses were administered on day 69 per os. (oesophagus). The second measurement session began 10 days after said bolus administration, with animals entering the respiration chambers for a 48-hour period in groups of four.
# (§1) Liveweights of the animals were recorded prior to the first bolus administration and following each measurement period. Gas production of methane, hydrogen, and carbon dioxide was assessed every 3 min over a 48-hour period in respiration chambers using a 4900C Continuous Emission Analyser. […] Rumen fluid contents were sampled prior to bolus administration and following measurement periods in the respiration chambers. Rumen samples were assessed for pH and short-chain fatty acids (SCFAs) content, and were stored for bromoform residue analysis later on. Blood samples were collected 16 days prior to bolus administration, and on days 34 and 94 following the measurement periods. Blood samples were assessed biochemical constitution and for liver enzymes.
# Emissions of methane (CH4), hydrogen (H2) and carbon dioxide (CO2) were assessed in respiration chambers over 48 hour measurements and converted to a per-day-total. […] The data are combined for both feeds during measurement session 2 (cf. schedule table 16). P-values were calculated by single-factor ANOVA and differences were deemed particularly significant for p-value <0.05.
# [3] = Preliminary field trial (Example 14): dry matter intake, liveweight, blood samples; assay type: in vivo, heifers
# Procedure: as §1
# The data are combined for both feed types during measurement session 2. […]
# [4] = rats; cited from earlier work
# [5] = mice; cited from earlier work
# [6] = after 48 hour with holding period; cited from earlier work
# [7] = in vivo; cited from earlier work
# [8] = 260 mg/d (HIGH + 156), period 2
smiles,measurement,setting,value
BrC(Br)Br [bromoform],H2,"methane emissions [1]; HIGH, 450 mg/d",20.08^a g/d
same,CH4 production (g/day) decrease compared with CONTROL,"methane emissions [1]; HIGH, about 450-580 mg/day",more than 99%
same,CH4 yield (g/kg dry matter intake) decrease compared with CONTROL,"methane emissions [1]; HIGH, about 450-580 mg/day",more than 99%
same,H2,"methane emissions [1]; LOW, 300 mg/d",20.60^a g/d
same,CH4 production (g/day) decrease compared with CONTROL,"methane emissions [1]; LOW, about 300-400 mg/day",more than 99%
same,CH4 yield (g/kg dry matter intake) decrease compared with CONTROL,"methane emissions [1]; LOW, about 300-400 mg/day",more than 99%
same,CO2,"methane emissions [2]; 156 mg/d (CON + 156), period 2",5666 ± 327 g/day
same,H2,"methane emissions [2]; 156 mg/d (CON + 156), period 2",7.9 ± 3.5 g/day
same,CH4,"methane emissions [2]; 156 mg/d (CON + 156), period 2, all animals, average ± standard error",48.7 ± 29.5 g/day
same,methane emissions of individual animals,methane emissions [2]; 156 mg/day dose group (CON+156),about 0.2 g/d and ~0 g/d and 76 g/d
same,methane emissions as % of the average of the untreated control group,"methane emissions [2]; 156 mg/day, one animal with partial knockdown",approximately 50%
same,CH4,"methane emissions [2]; 182 mg/d (LOW + 156), period 2",18.6 ± 18.2 g/day
same,CO2,"methane emissions [2]; 182 mg/d (LOW + 156), period 2",5589 ± 295 g/day
same,H2,"methane emissions [2]; 182 mg/d (LOW + 156), period 2",13.7 ± 4.7 g/day
same,"methane inhibition, animals responding",methane emissions [2]; 182 mg/d (LOW+156),full methane inhibition was observed for three of the four treated animals; also recorded: Partial inhibition was observed for 1 out of 4 animals
same,methane emission compared to control animals,"methane emissions [2]; 182 mg/d, fourth animal",approximately 50%
same,CH4,"methane emissions [2]; 208 mg/d (MED + 156), period 2",-0.3 ± 0.5 g/day
same,CO2,"methane emissions [2]; 208 mg/d (MED + 156), period 2",5011 ± 377 g/day
same,H2,"methane emissions [2]; 208 mg/d (MED + 156), period 2",17.2 ± 3.5 g/day
same,methane inhibition,methane emissions [2]; 208 mg/d or more,full methane inhibition
same,CH4,methane emissions [2]; [8],-0.2 ± 0.3 g/day
same,CO2,methane emissions [2]; [8],5159 ± 308 g/day
same,H2,methane emissions [2]; [8],17 ± 3.4 g/day
same,CH4,"methane emissions [2]; Baleage, 156 mg/d",59.1 g/day
same,CO2,"methane emissions [2]; Baleage, 156 mg/d",5251 g/day
same,H2,"methane emissions [2]; Baleage, 156 mg/d",7.4 g/day
same,CH4,"methane emissions [2]; Baleage, 182 mg/d",0.9 g/day
same,CO2,"methane emissions [2]; Baleage, 182 mg/d",5202 g/day
same,H2,"methane emissions [2]; Baleage, 182 mg/d",13.3 g/day
same,CH4,"methane emissions [2]; Baleage, 208 mg/d",-1.0 g/day
same,CO2,"methane emissions [2]; Baleage, 208 mg/d",4919 g/day
same,H2,"methane emissions [2]; Baleage, 208 mg/d",19.9 g/day
same,CH4,"methane emissions [2]; Baleage, 260 mg/d",0.3 g/day
same,CO2,"methane emissions [2]; Baleage, 260 mg/d",4645 g/day
same,H2,"methane emissions [2]; Baleage, 260 mg/d",12.7 g/day
same,CH4,"methane emissions [2]; Pasture, 156 mg/d",38.2 g/day
same,CO2,"methane emissions [2]; Pasture, 156 mg/d",6081 g/day
same,H2,"methane emissions [2]; Pasture, 156 mg/d",8.4 g/day
same,CH4,"methane emissions [2]; Pasture, 182 mg/d",36.2 g/day
same,CO2,"methane emissions [2]; Pasture, 182 mg/d",5977 g/day
same,H2,"methane emissions [2]; Pasture, 182 mg/d",14.1 g/day
same,CH4,"methane emissions [2]; Pasture, 208 mg/d",0.3 g/day
same,CO2,"methane emissions [2]; Pasture, 208 mg/d",5104 g/day
same,H2,"methane emissions [2]; Pasture, 208 mg/d",14.4 g/day
same,CH4,"methane emissions [2]; Pasture, 260 mg/d",-0.7 g/day
same,CO2,"methane emissions [2]; Pasture, 260 mg/d",5673 g/day
same,H2,"methane emissions [2]; Pasture, 260 mg/d",21.3 g/day
same,effective minimal daily dose,"methane emissions [2]; cattle, about 378 kg",0.28 to 0.4 mg/kg/day
same,minimum dose for an effective mitigation of methanogenesis,"methane emissions [2]; cattle, about 378 kg",104 to 156 mg/day
same,methane inhibition,"methane emissions [2]; dose range of 0-104 mg/day, chamber session 1 (data not shown)",no substantial methane inhibition
same,"methane inhibition, animals responding",methane emissions [2]; doses equal to and greater than 156 mg/d,15 out of 16 animals
same,Average animal liveweight,[3]; 156 mg/d (CON + 156),380 kg
same,Average animal liveweight,[3]; 182 mg/d (LOW+156),387 kg
same,Average animal liveweight,[3]; 208 mg/d (MED + 156),376 kg
same,Average animal liveweight,[3]; 260 mg/d (HIGH + 156),369 kg
same,Dry matter intake,[3]; all tested doses,not significantly different; also recorded: not significantly altered
same,"Animal liveweight, treated versus untreated control",[3]; in vivo,about the same
same,"blood data, treated versus untreated control",[3]; in vivo,No differences
same,Average dry matter intake,[3]; treatment group CON + 156,5.54 kg/day
same,Average dry matter intake,[3]; treatment group HIGH,5.54 kg/day
same,Average dry matter intake,[3]; treatment group HIGH + 260,4.47 kg/day
same,Average dry matter intake,[3]; treatment group LOW + 182,5.15 kg/day
same,Average dry matter intake,"[3]; treatment group LOW, both feeds, session 2",5.11 kg/day
same,Average dry matter intake,[3]; treatment group MED,5.72 kg/day
same,Average dry matter intake,[3]; treatment group MED + 208,3.86 kg/day
same,half-life in animals,[4],0.8 h
same,half-life in animals,[5],1.2 h
same,residues in meat and tissue from slaughtered steers,[6],no residues
same,level in milk,[7],no significant increase

# Reference: patent US12115248B2, “Devices and methods for delivering methane inhibiting compounds to animals” (Ruminant Biotech Corp Limited, priority 2022, dated 2024)
